Here are results for 22 molecules from ChEMBL document CHEMBL1126591, “Dibenz[b,e]oxepin derivatives: novel antiallergic agents possessing thromboxane A2 and histamine H1 dual antagonizing activity. 1” (J Med Chem, 1993).

Activity calls are given as the source filed them. No cut-off for these calls is given here.

Data set [1] concerns Rattus norvegicus. Put plainly: Compound concentration inhibiting 48 hr homologous passive cutaneous Anaphylaxis in rats peroral administration. The class given is functional. Conditions: po.
Data set [2] can be described thus: Affinity for TXA2 / PGH-2 receptors in guinea pig platelets, by inhibition of [3H]U-46619 binding.
For a further data set, the target named is Histamine H1 receptor (Cavia porcellus, UniProt P31389). The experiment in a line: Inhibition of the specific binding of [3H]pyrilamine to guinea pig cerebellum histamine H1 receptor. It is filed as tissue-based.
The next data set deals with D(2) dopamine receptor (Rattus norvegicus, UniProt P61169). Put plainly: Inhibition of dopamine receptor binding at a concentration of 10 uM; Showed negligible activities.
For another data set, the target named is Histamine H2 receptor (Rattus norvegicus, UniProt P25102). Put plainly: Inhibition of H2 histamine receptor binding at a concentration of 10 uM; Showed negligible activities.
For data set [3], the target named is T1, Muscarinic acetylcholine receptor M1 (Homo sapiens, UniProt P11229).
T1 sequence (P11229 whole entry): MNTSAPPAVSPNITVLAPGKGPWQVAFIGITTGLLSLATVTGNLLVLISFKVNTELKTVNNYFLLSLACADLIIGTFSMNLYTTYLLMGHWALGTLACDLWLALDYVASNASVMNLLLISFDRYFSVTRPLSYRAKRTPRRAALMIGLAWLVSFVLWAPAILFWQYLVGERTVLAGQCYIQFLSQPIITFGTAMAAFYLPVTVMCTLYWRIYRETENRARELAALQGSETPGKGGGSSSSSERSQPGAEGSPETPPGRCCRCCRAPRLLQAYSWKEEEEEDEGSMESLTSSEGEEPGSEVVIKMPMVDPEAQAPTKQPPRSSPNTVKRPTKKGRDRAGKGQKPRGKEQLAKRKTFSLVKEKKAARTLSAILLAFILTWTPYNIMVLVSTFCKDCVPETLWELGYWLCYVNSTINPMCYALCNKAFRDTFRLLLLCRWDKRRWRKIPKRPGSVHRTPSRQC
The experiment in a line: Inhibition of muscarinic-1 receptor binding at a concentration of 10 uM; Showed negligible activities.

Data set [4] addresses T2, Prostaglandin E2 receptor EP3 subtype (Homo sapiens, UniProt P43115).
T2 sequence (P43115 whole entry): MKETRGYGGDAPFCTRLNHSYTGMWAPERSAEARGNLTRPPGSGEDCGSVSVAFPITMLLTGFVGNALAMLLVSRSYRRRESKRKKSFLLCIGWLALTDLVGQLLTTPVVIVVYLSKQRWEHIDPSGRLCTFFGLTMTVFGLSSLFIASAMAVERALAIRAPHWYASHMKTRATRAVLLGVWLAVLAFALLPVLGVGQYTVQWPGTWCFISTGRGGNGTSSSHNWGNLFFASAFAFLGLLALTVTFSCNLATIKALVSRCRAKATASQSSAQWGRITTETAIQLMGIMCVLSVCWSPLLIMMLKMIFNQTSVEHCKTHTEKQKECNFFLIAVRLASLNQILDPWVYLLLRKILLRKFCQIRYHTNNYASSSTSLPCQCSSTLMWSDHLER
Put plainly: Inhibition of prostaglandin E2 receptor binding at a concentration of 10 uM; Showed negligible activities.

The target in data set [5] is Platelet-activating factor receptor (Homo sapiens, UniProt P25105). The experiment in a line: Inhibition of platelet-activating factor binding at a concentration of 10 uM; Showed negligible activities.
Data set [6] can be described thus: Inhibition of prostaglandin I2 receptor binding at a concentration of 10 uM; Showed negligible activities.
Data set [7] can be described thus: Lethal concentration in 50% rats peroral administration of compound. The class given is ADME, organism-based. The conditions noted are these: rat, in vivo, po.
For data set [8], the target named is 5-hydroxytryptamine receptor 5B (Rattus norvegicus, UniProt P35365). Put plainly: Inhibition of serotonin receptor binding at a concentration of 10 uM; Showed negligible activities.
The test system of data set [9] is Alpha-2 adrenergic receptor (Rattus norvegicus). Put plainly: Inhibition of alpha-2 adrenergic receptor binding at a concentration of 10 uM; Showed negligible activities.
Data set [10] relates to Alpha-1 adrenergic receptor (Rattus norvegicus). The experiment in a line: Inhibition of alpha-1 adrenergic receptor binding at a concentration of 10 uM; Showed negligible activities.
Data set [11] deals with Histamine H1 receptor (Cavia porcellus) (UniProt P31389). The experiment in a line: Inhibitory effect on the specific binding of [3H]pyrilamine to guinea pig cerebellum histamine H1 receptor at 1 uM. The class given is tissue-based.
In data set [12] the test system is Rattus norvegicus. Put plainly: Compound concentration inhibiting 48 hr homologous passive cutaneous Anaphylaxis in rats peroral administration; No efficacy. The class given is functional, organism-based.
The species entered for a further data set is Cavia porcellus. Put plainly: Inhibitory effect on the specific binding of [3H]U-46619 to guinea pig platelets TXA2/PGH2 receptors at 1 uM.

Histamine H1 receptor, sequence (P31389 whole entry): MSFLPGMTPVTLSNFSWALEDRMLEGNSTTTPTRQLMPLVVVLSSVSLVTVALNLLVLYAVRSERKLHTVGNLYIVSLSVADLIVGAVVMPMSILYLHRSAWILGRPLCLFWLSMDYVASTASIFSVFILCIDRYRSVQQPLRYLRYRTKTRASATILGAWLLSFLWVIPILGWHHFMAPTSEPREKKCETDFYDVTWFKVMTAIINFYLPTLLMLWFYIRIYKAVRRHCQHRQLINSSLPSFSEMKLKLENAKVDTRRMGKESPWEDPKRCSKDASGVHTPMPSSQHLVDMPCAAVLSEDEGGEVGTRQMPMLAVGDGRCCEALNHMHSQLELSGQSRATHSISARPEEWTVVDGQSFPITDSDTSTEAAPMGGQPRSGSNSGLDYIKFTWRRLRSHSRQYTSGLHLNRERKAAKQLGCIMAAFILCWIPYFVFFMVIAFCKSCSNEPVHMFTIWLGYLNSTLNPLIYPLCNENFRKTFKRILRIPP
Histamine H1 receptor (Cavia porcellus), sequence (P31389 whole entry): as above
Platelet-activating factor receptor, sequence (P25105 whole entry): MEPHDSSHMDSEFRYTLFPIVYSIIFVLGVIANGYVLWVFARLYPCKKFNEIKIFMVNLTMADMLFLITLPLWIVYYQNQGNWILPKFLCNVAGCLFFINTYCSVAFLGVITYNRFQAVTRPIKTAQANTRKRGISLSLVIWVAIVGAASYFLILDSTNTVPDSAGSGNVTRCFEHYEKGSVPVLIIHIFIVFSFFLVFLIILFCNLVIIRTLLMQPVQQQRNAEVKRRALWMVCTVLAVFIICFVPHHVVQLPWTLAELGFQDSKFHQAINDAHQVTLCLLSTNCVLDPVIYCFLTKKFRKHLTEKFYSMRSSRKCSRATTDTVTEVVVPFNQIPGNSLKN
5-hydroxytryptamine receptor 5B, sequence (P35365 whole entry): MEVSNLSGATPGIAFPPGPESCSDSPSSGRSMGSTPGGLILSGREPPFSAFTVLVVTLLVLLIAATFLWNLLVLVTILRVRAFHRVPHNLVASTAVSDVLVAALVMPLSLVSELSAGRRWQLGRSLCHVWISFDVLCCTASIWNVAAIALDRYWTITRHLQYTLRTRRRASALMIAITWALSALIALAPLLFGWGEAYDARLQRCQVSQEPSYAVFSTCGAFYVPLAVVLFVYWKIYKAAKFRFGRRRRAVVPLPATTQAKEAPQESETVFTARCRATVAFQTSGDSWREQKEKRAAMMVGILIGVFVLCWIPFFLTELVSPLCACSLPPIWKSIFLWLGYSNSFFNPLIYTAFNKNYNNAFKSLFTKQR
D(2) dopamine receptor, sequence (P61169 whole entry): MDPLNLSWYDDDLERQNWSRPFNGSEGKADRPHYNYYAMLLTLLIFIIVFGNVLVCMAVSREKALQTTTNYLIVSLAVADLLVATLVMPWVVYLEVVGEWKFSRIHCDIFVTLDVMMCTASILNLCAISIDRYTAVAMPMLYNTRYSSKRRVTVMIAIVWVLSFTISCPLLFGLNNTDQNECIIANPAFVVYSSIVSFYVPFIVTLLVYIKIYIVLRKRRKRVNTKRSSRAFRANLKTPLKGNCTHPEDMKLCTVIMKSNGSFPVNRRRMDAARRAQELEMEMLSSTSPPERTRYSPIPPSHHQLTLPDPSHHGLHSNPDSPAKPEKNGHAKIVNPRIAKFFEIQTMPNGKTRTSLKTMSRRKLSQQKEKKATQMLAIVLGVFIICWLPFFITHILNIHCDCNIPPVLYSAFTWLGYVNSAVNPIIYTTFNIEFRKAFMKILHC
Histamine H2 receptor, sequence (P25102 whole entry): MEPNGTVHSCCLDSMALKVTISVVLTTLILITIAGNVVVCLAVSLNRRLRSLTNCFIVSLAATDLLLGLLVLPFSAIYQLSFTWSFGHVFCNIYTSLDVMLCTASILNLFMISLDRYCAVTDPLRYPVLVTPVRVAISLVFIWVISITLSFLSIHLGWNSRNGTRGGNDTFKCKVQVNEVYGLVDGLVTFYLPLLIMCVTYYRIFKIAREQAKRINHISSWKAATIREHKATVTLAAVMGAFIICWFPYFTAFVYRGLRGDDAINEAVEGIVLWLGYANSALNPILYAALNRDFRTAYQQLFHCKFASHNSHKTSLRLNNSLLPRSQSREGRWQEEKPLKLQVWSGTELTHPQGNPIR

The ED50 is the dose at which the effect has come halfway, by size or by number of responders. The Ki is a dissociation constant, usually derived from enzyme kinetics or from competition with a known ligand. Low readings indicate a stronger hold on the target, high ones a looser hold on the target. In the data set on Rattus norvegicus [1], `CN(C)C/C=C1\c2ccccc2COc2ccc(CC(=O)O)cc21` gave an ED50 of 0.077 mg/kg. Also, in data set [2], the Ki is over 1000 nM.

Regarding `O=C(O)c1ccc2c(c1)C(SCCN1CCC(Cc3ccccc3)CC1)c1ccccc1CO2` (racemic), the inhibition constant (Ki) on Histamine H1 receptor is 18 nM; in [2] it was 140 nM.

Take `O=C(O)c1ccc2c(c1)C(SCCN1CCC(Cc3ccccc3)CC1)c1ccccc1CO2` (stereo in doubt; (+)12): the Ki at Histamine H1 receptor was determined as 9.9 nM; in [2] it was 14000 nM.

As for `O=C(O)Cc1ccc2c(c1)C(SCCN1CCC(Cc3ccccc3)CC1)c1ccccc1CO2` (centres undefined), the inhibition constant (Ki) at Histamine H1 receptor stood at 10 nM; in data set [2] it was 430 nM.

On to `O=C(O)c1ccc2c(c1)C(SCCN1CCOCC1)c1ccccc1CO2` (centres undefined), for which the Ki at Histamine H1 receptor was found to be 42 nM; in [2], 1900 nM.

Take `CN1CCC(=C2c3ccccc3CC(=O)c3sccc32)CC1` [KETOTIFEN]: it took a dose of 4.8 mg/kg to reach the 50% effect level in the data set with Rattus norvegicus [1] (ED50).

In turn, `O=C(O)c1ccc2c(c1)/C(=C/Cn1cnc3ccccc31)c1ccccc1CO2` had a Ki in data set [2] of 15 nM.

The term LD50 denotes the dose at which mortality reaches 50%. As for `O=C(O)Cc1ccc2c(c1)/C(=C/CN1CCC(Cc3ccccc3)CC1)c1ccccc1CO2`, the Ki result on D(2) dopamine receptor is “Not Active”; on Histamine H1 receptor, 20 nM; on Histamine H2 receptor, “Not Active”; in data set [3] it was “Not Active”; in [4], “Not Active”; in data set [5], “Not Active”. Further, the inhibition constant (Ki) entry in data set [6] was “Not Active”; in data set [8], “Not Active”; in data set [2] it was 740 nM; in [9], “Not Active”; in data set [10] it was “Not Active”. The 50% effect level with Rattus norvegicus [1] (ED50) was put at a dose of 0.73 mg/kg. Besides, in [7], the LD50 was over 1000 mg/kg.

Broadly, the inhibition is the relative decrease from the control value, in per cent. The low end stands for a weak effect, the high end for a strong effect. The molecule `O=C(O)COc1ccc(CCNS(=O)(=O)c2ccccc2)cc1` [SULOTROBAN] registered an inhibition in data set [11] of 0%. For the same molecule, the ED50 entry in the data set on Rattus norvegicus [12] was “inactive”.

As for `O=C(O)Cc1ccc2c(c1)/C(=C\CN1CCC(Cc3ccccc3)CC1)c1ccccc1CO2`, the Ki at Histamine H1 receptor was found to be 15 nM; in data set [2] it was 2600 nM.

With `O=C(O)c1ccc2c(c1)C(SCCN1CCC(n3c(O)nc4ccccc43)CC1)c1ccccc1CO2` (centres undefined), the inhibition constant (Ki) at Histamine H1 receptor was found to be 500 nM; in data set [2], 130 nM.

In the case of `O=C(O)c1ccc2c(c1)C(SCCN1CCC(Cc3ccccc3)CC1)c1ccccc1CO2` (stereo in doubt; (-)12), the Ki at Histamine H1 receptor came to 740 nM; in data set [2], 42 nM.

For the molecule `CC(C)(C(=O)O)c1ccc2c(c1)C(SCCN1CCC(Cc3ccccc3)CC1)c1ccccc1CO2` (centres undefined), the results for the Ki (at Histamine H1 receptor; in [2]) were 17 nM and 1600 nM, respectively.

Turning to `O=C(O)CCc1ccc2c(c1)C(SCCN1CCC(Cc3ccccc3)CC1)c1ccccc1CO2` (centres undefined), the inhibitory constant (Ki) turned out to be 12 nM at Histamine H1 receptor and 340 nM in data set [2].

With `O=C(O)c1ccc2c(c1)C(SCCN1CCC(c3ccccc3)CC1)c1ccccc1CO2` (centres undefined), the figures for the Ki (on Histamine H1 receptor; in data set [2]) were 20 nM and 990 nM, respectively.

Consider `O=C(O)c1ccc2c(c1)C(SCCN1CCN(c3ccccc3)CC1)c1ccccc1CO2` (centres undefined), for which the Ki at Histamine H1 receptor came out at 47 nM; in data set [2] it was 210 nM.

With `O=C(O)c1ccc2c(c1)C(SCCN1CCN(c3ccc(F)cc3)CC1)c1ccccc1CO2` (centres undefined), the inhibition constant (Ki) turned out to be 41 nM at Histamine H1 receptor and 400 nM in data set [2].

In data set [11], `O=C(O)c1ccc2c(c1)/C(=C/CN1CCN(c3ccc(F)cc3)CC1)c1ccccc1CO2` registered an inhibition of 3%. The molecule also came in with a Ki in data set [2] of 2300 nM.

Turning to `O=C(O)c1ccc2c(c1)C(SCCNS(=O)(=O)c1ccccc1)c1ccccc1CO2` (centres undefined), the inhibition in data set [11] worked out at 0%. In [2], this molecule came in with a Ki of 32 nM.

For the molecule `CN(C)CCSC1c2ccccc2COc2ccc(C(=O)O)cc21` (centres undefined), the affinity on Histamine H1 receptor, expressed as Ki, was 9 nM. The molecule also displayed an ED50 in the data set on Rattus norvegicus [1] of 0.92 mg/kg. The inhibition in the data set filed under Cavia porcellus is 18%.

Consider `O=C(O)c1ccc2c(c1)C(SCCN1CCc3ccccc3C1)c1ccccc1CO2` (centres undefined), for which the figures for the Ki (on Histamine H1 receptor; in data set [2]) were 6.9 nM and 240 nM, respectively.

`O=C(O)c1ccc2c(c1)C(SCCN1CCN(Cc3ccccc3)CC1)c1ccccc1CO2` (centres undefined): the Ki worked out at 14 nM at Histamine H1 receptor and 490 nM in data set [2].
